Experimental data: patent publication EP1247803A2, “Indolinone compounds suitable for modulation of protein kinases” (Sugen, Inc., priority 1996, dated 1998)

Columns and labels:
EGFR = target: T1, EGFR (Homo sapiens, UniProt P00533); assay: EGFR ELISA assay (in vitro kinase activity, EGFR captured from A431 cell lysate); type: biochemical; set-up: concentration or dose not given beside the values
T1 construct: Add 7 ug A431 cell lysate per well (EGFR source); endogenous in cells; host or cells: A431
How it was run: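 EGFR from A431 lysate was captured on anti-EGFR antibody-coated plates and preincubated with compounds for 30 min. Autophosphorylation ran 5 min with 3 uM ATP and 5 mM MnCl2 (final), stopped with 20 mM EDTA. Phosphotyrosine was detected by anti-pTyr ELISA with ABTS/H2O2, read at 410 nm.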

MET = MET biochemical kinase assay; set-up: species or system human; concentration or dose not given beside the values
How it was run: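 MET from cell lysates captured on ELISA plates via rabbit anti-MET cytoplasmic-domain antibody; compounds added and kinase reaction run in ATP and divalent-metal buffer. Receptor phosphotyrosine detected with HRP-conjugated anti-phosphotyrosine antibody and TMB colorimetry.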

PDGF-R = PDGF-R (Homo sapiens, UniProt P09619); assay: PDGF-R ELISA; type: cell-based
Excerpt: A PDGF-R ELISA is described in International Patent Publication No. WO 96/40116, published December 19, 1996 by Tang et al.

T1 sequence (P00533 25-1210): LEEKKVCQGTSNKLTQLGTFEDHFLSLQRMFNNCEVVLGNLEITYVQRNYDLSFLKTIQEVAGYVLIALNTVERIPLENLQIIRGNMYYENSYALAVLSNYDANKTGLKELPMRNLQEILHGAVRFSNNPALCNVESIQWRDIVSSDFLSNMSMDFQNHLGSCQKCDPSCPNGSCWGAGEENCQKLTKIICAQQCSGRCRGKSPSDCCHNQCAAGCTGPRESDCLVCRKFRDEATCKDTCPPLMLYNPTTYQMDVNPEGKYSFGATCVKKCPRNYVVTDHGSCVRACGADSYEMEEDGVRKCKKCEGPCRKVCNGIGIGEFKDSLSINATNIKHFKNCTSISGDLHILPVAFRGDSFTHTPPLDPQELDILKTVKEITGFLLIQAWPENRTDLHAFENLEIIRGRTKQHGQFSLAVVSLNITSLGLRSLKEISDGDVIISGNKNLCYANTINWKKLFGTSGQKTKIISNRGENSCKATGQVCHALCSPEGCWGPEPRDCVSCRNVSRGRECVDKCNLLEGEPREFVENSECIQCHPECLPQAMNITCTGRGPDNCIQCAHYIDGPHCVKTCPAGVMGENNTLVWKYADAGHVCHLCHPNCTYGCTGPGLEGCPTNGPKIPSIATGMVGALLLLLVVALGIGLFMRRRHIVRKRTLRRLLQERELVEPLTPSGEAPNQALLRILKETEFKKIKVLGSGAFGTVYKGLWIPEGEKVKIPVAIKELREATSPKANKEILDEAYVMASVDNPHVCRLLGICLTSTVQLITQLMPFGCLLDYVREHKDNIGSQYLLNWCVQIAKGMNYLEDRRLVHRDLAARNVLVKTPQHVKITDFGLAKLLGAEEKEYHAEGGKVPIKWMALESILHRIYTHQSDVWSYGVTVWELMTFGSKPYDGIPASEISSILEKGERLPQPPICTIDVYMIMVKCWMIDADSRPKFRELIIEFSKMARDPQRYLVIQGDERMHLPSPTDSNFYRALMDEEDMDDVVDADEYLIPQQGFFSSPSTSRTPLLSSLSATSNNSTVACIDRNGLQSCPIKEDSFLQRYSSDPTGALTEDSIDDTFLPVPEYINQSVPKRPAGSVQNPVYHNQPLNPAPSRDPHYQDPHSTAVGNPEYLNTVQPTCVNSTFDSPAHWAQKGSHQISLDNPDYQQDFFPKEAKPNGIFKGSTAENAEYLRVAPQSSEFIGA
Chain of PDGF-R (P09619 33-1106, species assumed): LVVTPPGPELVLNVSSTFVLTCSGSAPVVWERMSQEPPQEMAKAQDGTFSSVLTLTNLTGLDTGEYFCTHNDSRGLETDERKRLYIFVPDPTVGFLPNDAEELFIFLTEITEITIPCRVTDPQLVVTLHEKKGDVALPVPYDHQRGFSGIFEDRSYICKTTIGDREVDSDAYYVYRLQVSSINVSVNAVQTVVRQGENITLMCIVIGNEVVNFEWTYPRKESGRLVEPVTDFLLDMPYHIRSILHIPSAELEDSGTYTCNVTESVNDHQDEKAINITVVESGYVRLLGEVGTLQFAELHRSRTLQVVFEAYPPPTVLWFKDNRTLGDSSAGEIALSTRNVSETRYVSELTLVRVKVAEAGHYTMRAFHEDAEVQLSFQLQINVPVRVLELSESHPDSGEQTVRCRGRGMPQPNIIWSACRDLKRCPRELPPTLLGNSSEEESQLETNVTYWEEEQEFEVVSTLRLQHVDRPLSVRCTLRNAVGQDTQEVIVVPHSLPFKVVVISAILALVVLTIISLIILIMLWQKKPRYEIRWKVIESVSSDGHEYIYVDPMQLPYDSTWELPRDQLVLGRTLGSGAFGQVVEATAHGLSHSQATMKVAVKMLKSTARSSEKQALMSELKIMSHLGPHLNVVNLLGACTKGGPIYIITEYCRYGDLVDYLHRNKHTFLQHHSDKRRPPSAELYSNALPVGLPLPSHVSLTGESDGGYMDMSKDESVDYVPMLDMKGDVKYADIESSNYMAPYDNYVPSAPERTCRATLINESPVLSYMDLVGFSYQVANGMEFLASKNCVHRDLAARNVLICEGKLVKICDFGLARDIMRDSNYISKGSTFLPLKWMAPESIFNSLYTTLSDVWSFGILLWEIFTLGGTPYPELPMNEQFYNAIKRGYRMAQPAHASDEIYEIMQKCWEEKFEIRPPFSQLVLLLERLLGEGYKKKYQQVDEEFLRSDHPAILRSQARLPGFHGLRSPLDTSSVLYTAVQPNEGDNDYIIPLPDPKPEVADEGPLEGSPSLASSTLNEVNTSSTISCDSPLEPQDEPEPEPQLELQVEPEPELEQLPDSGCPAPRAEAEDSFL

SMILES	Biochem EGFR %Inhibition (EGFR) [%]	Met Kinase % Inhibition (MET) [%]	PDGF Kinase %Inhibition (PDGF-R) [%]
O=C1Nc2ccc(I)cc2C1=Cc1ccc([N+](=O)[O-])s1 [10722/B04]	10.6	53.4	3.1
O=C1Nc2ccc(I)cc2C1=Cc1ccc(C(=O)O)cc1 [10722/B05]	9.3	67.2	21.5
O=C1Nc2ccc(I)cc2C1=Cc1ccc(F)cc1F [10722/B06]	-4.9	72.6	21.5
CC(C)(C)c1cc(C=C2C(=O)Nc3ccc(I)cc32)cc(Cl)c1O [10722/B08]	0.5	72.0	27.8
CCCCN(CCCC)c1ccc(C=C2C(=O)Nc3ccc(I)cc32)cc1 [10722/B10]	-11.3	56.4	20.3
O=C1Nc2ccc(I)cc2C1=Cc1ccc(C(F)(F)F)cc1 [10722/B11]	-15.5	83.0	25.5
CNS(=O)(=O)c1ccc2c(c1)C(=Cc1cc([N+](=O)[O-])c(O)c(C(C)(C)C)c1)C(=O)N2 [10722/D02]	26.1	26.4	31.8
CNS(=O)(=O)c1ccc2c(c1)C(=Cc1c(O)cc(O)cc1O)C(=O)N2 [10722/D03]	31.0	52.8	-9.4
CNS(=O)(=O)c1ccc2c(c1)C(=Cc1ccc([N+](=O)[O-])s1)C(=O)N2 [10722/D04]	20.3	63.4	15.7
CNS(=O)(=O)c1ccc2c(c1)C(=Cc1ccc(C(=O)O)cc1)C(=O)N2 [10722/D05]	-3.8	35.8	22.0
CNS(=O)(=O)c1ccc2c(c1)C(=Cc1ccc(F)cc1F)C(=O)N2 [10722/D06]	-2.5	32.4	8.9
CNS(=O)(=O)c1ccc2c(c1)C(=Cc1cc(C)c(O)c(C)c1)C(=O)N2 [10722/D07]	-2.8	42.6	25.5
CNS(=O)(=O)c1ccc2c(c1)C(=Cc1cc(Cl)c(O)c(C(C)(C)C)c1)C(=O)N2 [10722/D08]	-2.6	60.5	41.5
CNS(=O)(=O)c1ccc2c(c1)C(=Cc1csc([N+](=O)[O-])c1)C(=O)N2 [10722/D09]	-17.2	52.2	30.6
CCCCN(CCCC)c1ccc(C=C2C(=O)Nc3ccc(S(=O)(=O)NC)cc32)cc1 [10722/D10]	-0.6	40.5	41.5
CNS(=O)(=O)c1ccc2c(c1)C(=Cc1ccc(C(F)(F)F)cc1)C(=O)N2 [10722/D11]	-10.1	41.0	15.2
CC(C)(C)c1cc(C=C2C(=O)Nc3ccc(S(=O)(=O)Nc4ccc(C(F)(F)F)cc4)cc32)cc([N+](=O)[O-])c1O [10722/E02]	22.2	71.1	23.2
O=C1Nc2ccc(S(=O)(=O)Nc3ccc(C(F)(F)F)cc3)cc2C1=Cc1c(O)cc(O)cc1O [10722/E03]	33.0	88.4	-7.2
O=C1Nc2ccc(S(=O)(=O)Nc3ccc(C(F)(F)F)cc3)cc2C1=Cc1ccc([N+](=O)[O-])s1 [10722/E04]	1.4	52.6	30.6
O=C1Nc2ccc(S(=O)(=O)Nc3ccc(C(F)(F)F)cc3)cc2C1=Cc1ccc(C(=O)O)cc1 [10722/E05]	-7.0	73.0	19.2
O=C1Nc2ccc(S(=O)(=O)Nc3ccc(C(F)(F)F)cc3)cc2C1=Cc1ccc(F)cc1F [10722/E06]	7.6	71.6	32.9
Cc1cc(C=C2C(=O)Nc3ccc(S(=O)(=O)Nc4ccc(C(F)(F)F)cc4)cc32)cc(C)c1O [10722/E07]	28.7	71.6	40.9
CC(C)(C)c1cc(C=C2C(=O)Nc3ccc(S(=O)(=O)Nc4ccc(C(F)(F)F)cc4)cc32)cc(Cl)c1O [10722/E08]	10.4	82.8	38.7
O=C1Nc2ccc(S(=O)(=O)Nc3ccc(C(F)(F)F)cc3)cc2C1=Cc1csc([N+](=O)[O-])c1 [10722/E09]	4.1	55.1	26.6
CCCCN(CCCC)c1ccc(C=C2C(=O)Nc3ccc(S(=O)(=O)Nc4ccc(C(F)(F)F)cc4)cc32)cc1 [10722/E10]	-13.3	86.6	31.8
O=C1Nc2ccc(S(=O)(=O)Nc3ccc(C(F)(F)F)cc3)cc2C1=Cc1ccc(C(F)(F)F)cc1 [10722/E11]	4.2	84.0	28.3
